Laboratory results published in patent publication US20140023611A1 (priority 2010, published 2014).

Experiments:
[1] = target: T1, rat NaP2b (SLC34A2) (Rattus norvegicus, UniProt Q9JJ09); assay: Inhibition of NaP2b-mediated Pi (33P) uptake in transfected HEK293 cells, rat NaP2b; assay type: cell-based; conditions: 33P Pi uptake, 0.1 mM phosphate, value given as pIC50 range
T1 construct: host or cells: HEK293
T1 sequence (Q9JJ09 1-695): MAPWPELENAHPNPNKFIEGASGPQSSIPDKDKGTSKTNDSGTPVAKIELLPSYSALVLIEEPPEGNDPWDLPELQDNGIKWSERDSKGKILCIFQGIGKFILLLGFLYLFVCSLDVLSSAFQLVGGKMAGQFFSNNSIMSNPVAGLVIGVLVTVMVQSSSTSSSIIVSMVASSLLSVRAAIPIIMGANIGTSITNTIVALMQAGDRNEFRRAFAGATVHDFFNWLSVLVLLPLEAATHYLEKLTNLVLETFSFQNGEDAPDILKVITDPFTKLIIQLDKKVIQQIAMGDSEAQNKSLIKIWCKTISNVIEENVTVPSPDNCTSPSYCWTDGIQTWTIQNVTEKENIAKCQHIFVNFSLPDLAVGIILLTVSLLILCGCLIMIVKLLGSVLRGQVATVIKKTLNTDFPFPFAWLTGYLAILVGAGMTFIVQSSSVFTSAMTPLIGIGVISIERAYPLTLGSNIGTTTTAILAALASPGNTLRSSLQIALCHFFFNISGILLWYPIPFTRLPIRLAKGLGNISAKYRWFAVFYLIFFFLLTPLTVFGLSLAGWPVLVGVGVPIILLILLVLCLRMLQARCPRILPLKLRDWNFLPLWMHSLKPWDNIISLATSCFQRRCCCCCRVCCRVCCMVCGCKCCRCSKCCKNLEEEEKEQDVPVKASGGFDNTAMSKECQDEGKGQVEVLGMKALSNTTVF
Procedure, shortened: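 HEK293 cells were transiently transfected with NaP2b cDNA using Lipofectamine and grown near confluence. Compounds were tested at twelve concentrations from 0.1 nM to 30 uM in duplicate, and 33P-phosphate uptake was counted by scintillation after lysis. Results are expressed as pIC50.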

[2] = target: T2, human NaP2b (SLC34A2) (Homo sapiens, UniProt O95436); assay: Inhibition of NaP2b-mediated Pi (33P) uptake in transfected HEK293 cells, human NaP2b; assay type: cell-based; conditions: read-out: pIC50 range for human NaP2b (converted)
T2 construct: host or cells: HEK293
T2 sequence (O95436 1-690): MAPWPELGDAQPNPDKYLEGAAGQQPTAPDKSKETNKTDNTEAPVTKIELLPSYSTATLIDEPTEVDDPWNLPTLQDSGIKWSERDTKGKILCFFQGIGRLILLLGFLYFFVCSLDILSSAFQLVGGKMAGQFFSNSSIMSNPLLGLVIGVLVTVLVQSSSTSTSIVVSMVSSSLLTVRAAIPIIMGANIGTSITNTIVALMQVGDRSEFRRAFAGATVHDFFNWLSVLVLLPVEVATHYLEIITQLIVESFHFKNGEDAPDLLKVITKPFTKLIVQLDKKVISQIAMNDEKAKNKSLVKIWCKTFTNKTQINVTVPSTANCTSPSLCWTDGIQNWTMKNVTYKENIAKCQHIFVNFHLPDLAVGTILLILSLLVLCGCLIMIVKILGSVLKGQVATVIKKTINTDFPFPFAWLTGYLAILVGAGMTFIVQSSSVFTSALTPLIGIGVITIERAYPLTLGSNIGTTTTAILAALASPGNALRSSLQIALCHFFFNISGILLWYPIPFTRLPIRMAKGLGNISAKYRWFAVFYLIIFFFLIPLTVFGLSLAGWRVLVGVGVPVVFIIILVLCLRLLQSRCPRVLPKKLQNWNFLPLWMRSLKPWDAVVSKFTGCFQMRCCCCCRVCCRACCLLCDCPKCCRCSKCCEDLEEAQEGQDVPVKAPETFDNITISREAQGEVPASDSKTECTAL
Description: HEK293 cells were obtained from the American Type Culture collection and propagated per their instructions. Expression clones for rat and human NaP2b (SLC34A2) were obtained from Open Biosystems (Catalog numbers MRN1768-9510282, and MHS1010-99823026, respectively). The sequence of the human protein was mutated to insert a threonine after residue 37, and to introduce a N39D mutation.
The rate of phosphate (Pi) uptake into HEK293 cells was measured using a modification of the method described by Mohrmann et al. (Mohrmann, I., Mohrmann, M., Biber, J., and Murer, H. (1986) Am. J. Phys. 250(3 Pt 1):G323-30.) Transfected HEK293 cells were treated with a pharmacological agent to minimize endogenous PiT-mediated phosphate transport activity, such that the only remaining sodium-dependent phosphate transport activity is that which was bestowed by introduction of the NaP2b genes.
Cells were seeded into 96-well plates at 25,000 cells/well and cultured overnight. Lipofectamine 2000 (Invitrogen) was used to introduce the NaP2b cDNA, and the cells were allowed to approach confluence during a second overnight incubation. […] Cells were then overlayed with either choline uptake buffer or sodium uptake buffer (14 mM Tris, 137 mM sodium chloride, 5.4 mM KCl, 2.8 mM CaCl2, 1.2 mM MgSO4, 100 uM KH2PO4, PiT-silencing agent, 1 mg/mL Bovine Serum Albumin, pH 7.4) containing 6-9 uCi/mL ^33P orthophosphoric acid (Perkin Elmer) and test compound. Each compound was tested at twelve concentrations ranging from 0.1 nM to 30 uM. Assays were run in duplicate.
After incubation for 3-30 minutes at room temperature, assay mixtures were removed, and the cells were washed twice with ice cold stop solution (137 mM sodium chloride, 14 mM Tris, pH 7.4). Cells were lysed by addition of 20 μL 0.1% Tween 80 followed by 100 μL scintillation fluid, and counted using a TopCount (Perkin Elmer).
pIC50 (the negative log of the IC50) values of the test compounds were calculated using GraphPad Prism.

[3] = Determination of compound Cmax and AUC after oral gavage (plasma LC-MS/MS); assay type: in vivo, Sprague-Dawley rats; conditions: Sprague-Dawley, rat, plasma, po
Description: (§1) Sprague-Dawley rats were orally gavaged with test article at a nominal dose of 2.5 or 10 mg/kg and blood was collected at 0.5, 1, 2 and 4 h. Blood samples were processed to plasma using K2EDTA as an anticoaglulant. Plasma samples were treated with acetonitrile containing an internal standard, precipitated proteins removed by centrifugation. Supernatants were analyzed by LC-MS/MS and compound concentrations were determined by interpolation from a standard curve prepared in plasma. All compounds were orally dosed at the dosage shown, and pharmacokinetic parameters determined.
as §1, with “interpolated” for “interpolation”
as §1, with “interpolated” for “interpolation”

[4] = Structure (II) examples, Table 6, actual oral dose 7.6-11 mg/kg
[5] = Structure (I) examples, Table 15, actual oral dose 3-15 mg/kg, plasma 0.5-4 h
[6] = Structure (III) examples, Table 6, actual oral dose 8.9-10 mg/kg

Compound | IC50 [1] | AUC [3, 5] | Cmax [3, 5] | also measured
CCN(CC)c1ccc(NC(=O)c2cccc(CCCOCCOCCOCCOCCC(=O)N3CCN(S(=O)(=O)c4ccc(C)cc4)CC3)c2)c(-c2cc(C(=O)NCc3cccc(C(F)(F)F)c3)ccn2)c1 [Example 291, 2-(5-(diethylamino)-2-(3-(16-oxo-16-(4-tosylpiperazin-1-yl)-4,7,10,13-tetraoxahexadecyl)benzamido)phenyl)-N-(3-(trifluoromethyl)benzyl)isonicotinamide] | 1000 to 7940 nM | – | – | IC50 [2]: < 1000 nM
CCN(CC)c1ccc(NC(=O)c2cccc(C(=O)N(C)CCN(CCOC)CCOCCOCCOCCC(=O)N(C)CCN3CCOCC3)c2)c(-c2cc(C(=O)NCc3cccc(C(F)(F)F)c3)ccn2)c1 [Example 338, N^1-(4-(Diethylamino)-2-(4-(3-(trifluoromethyl)benzylcarbamoyl)pyridin-2-yl)phenyl)-N^3-(3-(2-methoxyethyl)-16-methyl-18-morpholino-15-oxo-6,9,12-trioxa-3,16-diazaoctadecyl)-N^3-methylisophthalamide] | 1000 to 7940 nM | – | – | IC50 [2]: 1000 to 7940 nM
CCN(CC)c1ccc(NC(=O)c2cccc(CCCOCCOCCOCCOCCC(=O)NCCOCCOCCOCCOCCOCCOCCOCCOC)c2)c(-c2cc(C(=O)N[C@H]3CCCc4ccccc43)ccn2)c1 [Example 279] | 1000 to 7940 nM | – | – | IC50 [2]: 1000 to 7940 nM
O=C(O)CCSCc1cccc(C(=O)Nc2ccc(N3CCCCC3)cc2C(=O)Nc2ccn(-c3cccc(C(F)(F)F)c3)n2)c1 [Example 7] | – | – | – | AUC [3, 4]: 467 ng·h/mL; Cmax [3, 4]: 393 ng/mL
CN(C)C(=O)C1CCN(CCN(C)C(=O)c2cccc(C(=O)Nc3ccc(N4CCCCC4)cc3-c3cc(C(=O)N[C@H]4CCCc5ccccc54)ccn3)c2)CC1 [Example 218, (S)—N1-(2-(4-(dimethylcarbamoyl)piperidin-1-yl)ethyl)-N1-methyl-N3-(4-(piperidin-1-yl)-2-(4-(1,2,3,4-tetrahydronaphthalen-1-ylcarbamoyl)pyridin-2-yl)phenyl)isophthalamide] | 1000 to 7940 nM | < 30 ng·h/mL | < 10 ng/mL | –
O=C(O)CCOCCOCCOCCNC(=O)Cc1cccc(SCc2cccc(C(=O)Nc3ccc(N4CCCCC4)cc3C(=O)Nc3ccn(-c4cccc(C(F)(F)F)c4)n3)c2)c1 [Example 26] | – | – | – | Cmax [3, 4]: 3 ng/mL
O=C(O)CCSCc1cccc(C(=O)Nc2ccc(N3CCCCC3)cc2-c2cc(C(=O)NCc3cccc(C(F)(F)F)c3)ccn2)c1 [Example 1.1, 3-(3-((2-(4-((3-(Trifluoromethyl)benzyl)carbamoyl)pyridin-2-yl)-4-(piperidin-1-yl)phenyl)carbamoyl)benzylthio)propanoic acid] | – | > 50 ng·h/mL | < 50 ng/mL | –
CN(CCN1CCOCC1)C(=O)c1cccc(C(=O)Nc2ccc(OC3CCC3)cc2-c2cc(C(=O)NCc3cccc(C(F)(F)F)c3)ccn2)c1 [Example 26] | – | < 30 ng·h/mL | < 30 ng/mL | –
CN(CCN1CCOCC1)C(=O)c1cccc(C(=O)Nc2ccc(N3CCCCC3)cc2C(=O)Nc2cnc(-c3ccccc3)nc2)c1 [Example 11] | – | – | – | AUC [3, 6]: 140 ng·h/mL; Cmax [3, 6]: 70 ng/mL
O=C(O)CCCNC(=O)Cc1cccc(SCc2cccc(C(=O)Nc3ccc(N4CCCCC4)cc3-c3cc(C(=O)NCc4cccc(C(F)(F)F)c4)ccn3)c2)c1 [Example 141] | 1000 to 7940 nM | > 50 ng·h/mL | > 50 ng/mL | –
CN(CCOCCOCCOCCC(=O)O)C(=O)c1cccc(C(=O)Nc2ccc(N3CCCCC3)cc2-c2cc(C(=O)N[C@H]3CCCc4ccccc43)ccn2)c1 [Example 249, 3-[2-(2-{2-[N-methyl-1-(3-{[4-(piperidin-1-yl)-2-(4-{[(1S)-1,2,3,4-tetrahydronaphthalen-1-yl]carbamoyl}pyridin-2-yl)phenyl]carbamoyl}phenyl)formamido]ethoxy}ethoxy)ethoxy]propanoic acid] | 1000 to 7940 nM | < 30 ng·h/mL | < 10 ng/mL | –
COCCOCCOCCOCCOCCOCCOCCOCCNC(=O)[C@@H]1CCCN1CCN(C)C(=O)c1cccc(C(=O)Nc2ccc(N3CCCCC3)cc2-c2cc(C(=O)N[C@H]3CCCc4ccccc43)ccn2)c1 [Example 195, N^1-(2-((S)-2-(2,5,8,11,14,17,20,23-octaoxapentacosan-25-ylcarbamoyl)pyrrolidin-1-yl)ethyl)-N-methyl-N^3-(4-(piperidin-1-v)-2-(4-(((S)-1,2,3,4-tetrahydronaphthalen-1-yl)carbamoyl)pyridin-2-yl)phenyl)isophthalamide] | 1000 to 7940 nM | < 10 ng·h/mL | < 10 ng/mL | –
CN(CCOCCOCCOCCC(=O)O)C(=O)c1cccc(C(=O)Nc2ccc(N3CCCCC3)cc2C(=O)Nc2ccn(-c3cccc(C(F)(F)F)c3)n2)c1 [Example 15] | – | – | – | AUC [3, 4]: 11 ng·h/mL; Cmax [3, 4]: 10 ng/mL
CN(CCN1CCOCC1)C(=O)c1cccc(C(=O)Nc2ccc(N3CCCCC3)cc2C(=O)Nc2ccn(-c3cccc(C(F)(F)F)c3)n2)c1 [Example 11] | – | – | – | AUC [3, 4]: 9.8 ng·h/mL; Cmax [3, 4]: 5 ng/mL
COCCN(C)C(=O)N1CCN(CCN(C)C(=O)c2cccc(C(=O)Nc3ccc(N4CCCCC4)cc3-c3cc(C(=O)NCc4cccc(C(F)(F)F)c4)ccn3)c2)CC1 [Example 211, N1-(2-(4-((2-methoxyethyl)(methyl)carbamoyl)piperazin-1-yl)ethyl)-N1-methyl-N3-(4-(piperidin-1-yl)-2-(4-(3-(trifluoromethyl)benzylcarbamoyl)pyridin-2-yl)phenyl)isophthalamide] | 1000 to 7940 nM | < 30 ng·h/mL | < 10 ng/mL | –
